Experimental data from patent US20070037752A1, “Novel alanyl-amino peptidase inhibitors for functionally influencing different cells and treating immunological, inflammatory, neuronal, and other diseases” (priority 2003, published 2007).

target: alanyl aminopeptidases (APN) (Homo sapiens, UniProt P15144); test: Inhibition of alanyl aminopeptidase enzymatic activity, fluorogenic substrate (Ala)2-rhodamine 110; format: biochemical; conditions: Table 1, unstarred values; read-out: IC50APN
Method: The inhibition characteristics measured are referred to as IC-50 values or ID50 values (the latter marked with “*”) for said enzyme. The enzymatic activity was determined by means of the fluorogenic substrate/product (Ala)2-rhodamine 110.

Sequence of alanyl aminopeptidases (APN) (P15144 whole entry, species assumed): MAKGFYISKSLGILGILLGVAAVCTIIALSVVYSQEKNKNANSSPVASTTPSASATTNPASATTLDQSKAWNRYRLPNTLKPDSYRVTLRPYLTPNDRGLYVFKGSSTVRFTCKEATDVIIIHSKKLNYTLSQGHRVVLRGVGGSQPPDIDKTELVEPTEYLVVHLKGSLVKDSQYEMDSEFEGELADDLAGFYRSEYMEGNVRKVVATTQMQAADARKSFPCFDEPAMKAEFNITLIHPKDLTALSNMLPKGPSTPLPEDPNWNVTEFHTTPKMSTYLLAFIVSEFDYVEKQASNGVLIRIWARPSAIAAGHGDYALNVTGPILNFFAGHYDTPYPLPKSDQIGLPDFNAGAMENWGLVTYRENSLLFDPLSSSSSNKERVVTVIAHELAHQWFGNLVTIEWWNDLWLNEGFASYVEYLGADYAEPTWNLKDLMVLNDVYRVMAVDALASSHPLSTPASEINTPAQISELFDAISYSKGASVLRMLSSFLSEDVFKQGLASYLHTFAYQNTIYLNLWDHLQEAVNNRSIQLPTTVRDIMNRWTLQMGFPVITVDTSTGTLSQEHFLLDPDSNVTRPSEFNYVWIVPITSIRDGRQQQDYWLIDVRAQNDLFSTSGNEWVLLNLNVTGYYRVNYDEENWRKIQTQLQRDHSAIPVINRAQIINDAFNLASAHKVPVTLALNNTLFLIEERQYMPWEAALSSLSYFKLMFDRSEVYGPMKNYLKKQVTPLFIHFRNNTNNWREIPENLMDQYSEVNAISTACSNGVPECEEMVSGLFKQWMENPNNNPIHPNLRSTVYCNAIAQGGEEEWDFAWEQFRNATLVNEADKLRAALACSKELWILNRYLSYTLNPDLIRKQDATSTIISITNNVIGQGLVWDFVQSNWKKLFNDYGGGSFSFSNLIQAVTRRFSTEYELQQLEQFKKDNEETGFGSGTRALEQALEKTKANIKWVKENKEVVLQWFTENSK

SMILES | IC50 [µM]
Cc1ccc(C(OCCC(=O)NO)c2ccccc2)cc1 (stereo not drawn) [A1.010] | 14.2
O=C(CCOC(c1ccc(F)cc1)c1ccc(F)cc1)NO [A1.012] | 21.8

same assay, conditions: Table 3, starred values = ID50; read-out: ID50 APN (values marked with *)

SMILES | IC50 [µM]
COC(=O)c1cc(C(=O)NC2CCSC2=O)cc([N+](=O)[O-])c1 (stereo not drawn) [A3.341] | 238
Nc1ccc2c(c1)C/C(=C\c1ccco1)C2=O [A3.008] | 2.6
COc1ccc(C(=O)NCC(=O)N/N=C/c2ccco2)cc1OC [A3.288] | 64.9
O=C(Cc1ccccc1)NCC(=O)N/N=C/c1ccco1 [A3.300] | 73.1

same assay, conditions: Table 3, unstarred values; read-out: IC50APN

SMILES | IC50 [µM]
Nc1nonc1-n1nnc(C(=O)N/N=C/c2ccco2)c1-c1ccccc1 [A3.249] | 46.6
CC(/C=C/c1ccco1)=N\NC(=O)COc1ccc(C(C)(C)C)cc1 [A3.269] | 50
O=C(N/N=C1/C(=O)Nc2ccc(F)cc21)/C(=C/c1ccccc1)NC(=O)c1ccccc1 [A3.242] | 44.2
CCOC(=O)c1cc(Br)ccc1-c1ccc(/C=C2\C(=O)N=C(O)C(C#N)=C2C)o1 [A3.260] | 49.9
CCOC(=O)c1ncn(Cc2ccccc2)c1N [A3.063] | 14
CCOC(=O)c1nc(C)[nH]c1N [A3.012] | 4.3
COC(=O)c1ccccc1-c1ccc(/C=C2\C(=O)N(C)C(=O)C(C#N)=C2C)o1 [A3.172] | 28.1
Nc1nc2nc(-c3ccco3)cc(C(F)(F)F)n2n1 [A3.195] | 32.1
O=C(N/N=C/c1ccco1)c1ccc(=O)[nH]n1 [A3.130] | 22.4
COc1ccc(C(=O)N/N=C/c2cc(Br)c(C)o2)cc1 [A3.125] | 21.8
CCCOC(=O)c1cc(-c2ccc(/C=C3\C(=O)N(CCCO)C(=O)C(C#N)=C3C)o2)ccc1Cl [A3.146] | 23.8
O=C(CCC(=O)Nc1cccc(Cl)c1)N/N=C/c1ccco1 [A3.206] | 34
Cc1cccc(C)c1NC1C(c2ccccc2NC(=O)Nc2ccc(OC(F)(F)F)cc2)N=C2C(C(=O)NCC(C)C)=CC=CN21 (stereo not drawn) [A3.190] | 31.1
CCCOC(=O)c1cc(-c2ccc(/C=C3/C(=O)N(CC(C)O)C(=O)C(C#N)=C3C)o2)ccc1Cl (stereo not drawn) [A3.193] | 32
O=[N+]([O-])c1ncn(CN2CCOCC2)n1 [A3.222] | 36.6
CSc1nnc2n(/N=C/c3ccco3)cnn12 [A3.213] | 34.7
CC(C)C1N=C(Cc2cccnc2)N(CCCN2CCCC2=O)C1C(=O)NCc1ccccc1 (stereo not drawn) [A3.205] | 34
O=C(CC(=O)N/N=C/c1ccco1)N/N=C/c1ccco1 [A3.196] | 32.4

SMILES | IC50 [µM]
O=C(Nc1ccccc1C(=O)N/N=C/c1ccco1)c1ccccc1Cl [A3.210] | 34.7
O=C(N/C(=C\c1ccco1)C(=O)N1CCCC(CO)C1)c1ccccc1 (stereo not drawn) [A3.094] | 19
O=C(N/N=C/C=C\c1ccco1)c1ccco1 [A3.074] | 16
CCc1ccc(-c2cc(C(=O)N/N=C/c3c(C)nn(-c4ccccc4)c3C)[nH]n2)cc1 [A3.061] | 13.6
Cc1cc(C)cc(OCC(=O)N/N=C/c2ccco2)c1 [A3.140] | 23.4
CCCOc1ccc(/C=C(\NC(=O)c2ccccc2)C(=O)N/N=C/c2ccco2)cc1 [A3.165] | 27.3
COc1cc(Br)ccc1OCC(=O)N/N=C(C)/C=C/c1ccco1 [A3.217] | 36.3
COc1ccc2ccccc2c1-c1cc(C(=O)N/N=C(\C)c2ccco2)[nH]n1 [A3.228] | 38.2
Cc1ccc(/C=N/NC(=O)c2nnn(-c3nonc3N)c2CN2CCOCC2)o1 [A3.163] | 26.7
O=C1CNC(c2cccc([N+](=O)[O-])c2)N1O (stereo not drawn) [A3.161] | 26.4
Cc1ccc(/C=N/NC(=O)c2cccc(NC(=O)c3ccc(F)cc3)c2)o1 [A3.038] | 9.8
O=C(Nc1ccccc1F)c1ccc([N+](=O)[O-])o1 [A3.281] | 62.4
CCOC(=O)C1=C(N)NC2=C(CCCC2)C12C(=O)Nc1ccccc12 (stereo not drawn) [A3.202] | 33.6
COc1ccc(/C(C)=N/NC(=O)CNC(=O)/C=C\c2ccco2)cc1OC [A3.102] | 19.9
Cc1cc(C)n(-c2nnc(N)nn2)n1 [A3.107] | 20.3
N#Cc1c(NC(=O)C(C(F)(F)F)C(F)(F)F)sc2c1CCCC2 [A3.299] | 71.4
O=C(N/N=C/c1cccc([N+](=O)[O-])c1)c1ccco1 [A3.247] | 45.4

same assay, conditions: Table 4, starred values = ID50; read-out: ID50 APN (values marked with *)

SMILES | IC50 [µM]
CC(=O)Nc1cccc(C(=O)N/N=C/c2ccc(C)o2)c1 [A4.154] | 63.1

same assay, conditions: Table 4, unstarred values; read-out: IC50APN

SMILES | IC50 [µM]
C/C(=N\NC(=O)c1ccco1)c1ccc(C)o1 [A4.179] | 152
Cc1ccc(/C=N/NC(=O)c2ccc(O)cc2)o1 [A4.072] | 23.4
Cc1c(Cl)cccc1NC(=O)C(=O)N/N=C/c1c(OCc2ccccc2)ccc2ccccc12 [A4.006] | 6.6
Cc1cc(C)cc(OCC(=O)N/N=C/c2ccco2)c1 [A4.070] | 23.4
NC(=S)N/N=C/c1ccco1 [A4.141] | 50
C/C(=N\NC(=O)c1cc(-c2ccccc2)n[nH]1)c1ccco1 [A4.149] | 58.3
COc1cc(Br)cc(Br)c1OCC(=O)N/N=C/c1cc(Br)c(O)c(O)c1Br [A4.024] | 13.2
CCCCCC(=O)N/N=C/c1ccco1 [A4.085] | 26.7
COc1ccccc1C(=O)N/N=C/c1ccc(C)o1 [A4.110] | 34.7
O=C(Cn1cnc2ccccc21)N/N=C/c1ccco1 [A4.128] | 43.3
Cc1cc(C(=O)N/N=C/c2ccco2)[nH]n1 [A4.139] | 48.2
COc1ccc(C(=O)N/N=C/c2cc(Br)c(C)o2)cc1 [A4.060] | 21.8
O=C(CNC(=O)c1ccccc1Br)N/N=C/c1ccoc1 [A4.101] | 31.9
O=C(N/N=C/c1ccco1)c1cc(C2CC2)n[nH]1 [A4.030] | 14.3

same assay, conditions: Table 6; read-out: IC50APN

SMILES | IC50 [µM]
Cc1ccc(S(=O)(=O)CNC(=S)c2ccc3ccccc3c2)cc1 [A6.005] | 11.8
O=C(CS(=O)(=O)c1ccc(Cl)cc1)NO [A6.003] | 11.5
O=C(CNS(=O)(=O)c1ccc2c(c1)OCCO2)N/N=C/c1ccco1 [A6.016] | 55.6

same assay, conditions: Table 7; read-out: IC50APN

SMILES | IC50 [µM]
CCc1cccc(CC)c1NC(=S)N/N=C1\C(=O)N(CN2CC(C)CC(C)C2)c2ccccc21 (stereo not drawn) [A7.002] | 6.7

same assay, conditions: Table 8, starred values = ID50; read-out: ID50 APN (values marked with *)

SMILES | IC50 [µM]
CCOC(=O)c1ncn(C(=O)OC)c1N [A8.001] | 0.9

same assay, conditions: Table 8, unstarred values; read-out: IC50APN

SMILES | IC50 [µM]
C/C(=N\N=C1\SC(CC(=O)O)C(=O)N1c1ccccc1)c1ccco1 (stereo not drawn) [A8.026] | 28.6
Cc1ccc(/C=N/NC2=NC(=O)CS2)o1 [A8.022] | 26.4
Cc1cc(=O)[nH]c(N/N=C/c2ccco2)n1 [A8.018] | 18.2
NC(=S)N/N=C/c1ccco1 [A8.032] | 50
Cn1c(=O)c2c(nc3sccn32)n(C)c1=O [A8.013] | 14.3

same assay, conditions: Table 9, starred values = ID50; read-out: ID50 APN (values marked with *)

SMILES | IC50 [µM]
CC(C)Oc1ccc(/C=N/CCC2(c3ccccc3)CCOC(C)(C)C2)cc1 (stereo not drawn) [A9.126] | 197

same assay, conditions: Table 9, unstarred values; read-out: IC50APN

SMILES | IC50 [µM]
Cc1cc(=O)[nH]c(N/N=C/c2ccco2)n1 [A9.041] | 18.2
COC(=O)C1=C(N)N2C(=O)CSC2=C(C(=O)OC(C)C)C1 [A9.012] | 5.9
c1coc(-c2nc3cc4ccccc4cc3nc2-c2ccco2)c1 [A9.016] | 8.9
O=C1C2=[N+]([O-])C3CCCCC3[N+]([O-])=C2c2ccccc21 (stereo not drawn) [A9.030] | 13.7
CCOC(=O)C1=C(N)NC2=C(CCCC2)C12C(=O)Nc1ccccc12 (stereo not drawn) [A9.088] | 33.6
CCOC(=O)N1CCc2c(sc(NC(=O)c3ccc(F)cc3)c2C(=O)Nc2ccc(Br)cc2)C1 [A9.013] | 7.3
O=C(O)c1cc2nc(-c3ccco3)cc(C(F)(F)Cl)n2n1 [A9.028] | 13.2
CCOC(=O)c1cc(-c2ccc(/C=C3\C(=O)N(CCCO)C(=O)C(C#N)=C3C)o2)ccc1Cl [A9.094] | 41
Cc1ccc(Cn2c(SCCC(=O)O)nc3c2c(=O)n(C)c(=O)n3C)cc1 [A9.070] | 28
COc1ccc(Cl)cc1C(=O)N/C(=C/c1ccco1)C(=O)N1CC2CC(C1)c1cccc(=O)n1C2 (stereo not drawn) [A9.015] | 8.1
Cc1[nH]c2ccccc2c1C(c1cc(Cl)ccc1O)N1CCOCC1 (stereo not drawn) [A9.025] | 11.7
CCOC(=O)C1CCN(C(=O)/C(=C/c2ccco2)NC(=O)c2ccc(C)c(C)c2)CC1 [A9.089] | 34.5

same assay, conditions: Table 10; read-out: IC50APN

SMILES | IC50 [µM]
Cc1ccc(C(=O)N/C(=C\c2ccco2)C(=O)N2CCCN(C)CC2)cc1C [A10.007] | 32.1

same assay, conditions: Table 11; read-out: IC50APN

SMILES | IC50 [µM]
O=C(C[N+](=O)[O-])c1cc2occc2[nH]1 [A11.030] | 49.5
NCCCCCC(=O)C[N+](=O)[O-] [A11.025] | 33.2
O=C(N/N=C/c1cc(Cl)cc([N+](=O)[O-])c1O)c1ccccc1O [A11.039] | 5.8
O=C(Nc1ccc(O)cc1C(=O)O)c1cccc(N2C(=O)c3cccc4c([N+](=O)[O-])ccc(c34)C2=O)c1 [A11.017] | 23.6

same assay, conditions: Table 12; read-out: IC50APN

SMILES | IC50 [µM]
COc1c(OCC(O)C(C)(C)O)ccc2c1N=C1OC=CC1C2OC (stereo not drawn) [A12.072] | 117
O=C(CCCCCN1C(=O)c2cccc3cccc(c23)C1=O)NO [A12.028] | 14.1
CC1=C(C#N)C(=O)N(CCCO)C(=O)/C1=C\c1ccc(-c2ccc(Br)cc2)o1 [A12.030] | 16
Cc1ccc(C(=O)N/C(=C/c2ccco2)C(=O)N(C)C)cc1 [A12.052] | 32.5

same assay, conditions: Table 13; read-out: IC50APN

SMILES | IC50 [µM]
CCCOC(=O)c1cc(-c2ccc(/C=C3/C(=O)N(CC(C)O)C(=O)C(C#N)=C3C)o2)ccc1Cl (stereo not drawn) [A13.017] | 32
CC1=C(C#N)C(=O)N(CCO)C(=O)/C1=C\c1ccc(-c2ccc(C)c(Cl)c2)o1 [A13.024] | 125
C=CCOC(=O)c1cc(-c2ccc(/C=C3/C(=O)N(CCCO)C(=O)C(C#N)=C3C)o2)ccc1Cl [A13.008] | 18.1
Cc1ccccc1NC(=O)C1C(c2cccs2)C(C#N)=C(SCC(=O)Nc2ccc(Br)cc2)NC1(C)O (stereo not drawn) [A13.019] | 33.9

same assay, conditions: Table 14; read-out: IC50APN

SMILES | IC50 [µM]
CCOC(=O)C1=C2SCC(=O)N2C(N)=C(C#N)C1 [A14.003] | 23.1
